Entries after “also recorded” stand apart in the source; their conditions may differ.
Legend:
AMPK = AMPK activation in liver of treated high-fat-fed mice by western blot; assay type: in vivo, mouse; settings: 90 days after s.c. administration
Source text: […]

human hepatocytes = experiment: Hepatocyte metabolism assay; assay type: in vitro ADME
Method: Experimental procedures: a test sample (concentration: 10 μM) or a positive control (concentration: 30 μM) was co-incubated with hepatic cells of various genera (cell density: 1.0×10^6 cells/mL) for 120 min under the conditions of 37° C./5% CO2/saturated humidity. The sample was centrifuged after protein precipitation by using acetonitrile solution containing 0.1% formic acid according to the proportion of 1:2, the supernatant was blown dry by nitrogen, and then redissolved by using 200 μl of a 10% acetonitrile/water (containing 0.1% formic acid) solution. 15 μL of the obtained solution was introduced each time to an LC-MS instrument system for analysis.

high-fat-fed obese mice = experiment: In vivo efficacy in high-fat-fed obese mice (body weight, liver slice); design: species or system mouse; settings: 90 days
Source text: […]

Cc1n(CCCCCCCCCCCC(F)(F)C(F)(F)C(F)(F)C(F)(F)C(F)(F)F)cc[n+]1Cc1c(Cl)cccc1Cl.[Cl-] [IB-33]
AMPK activation in the mice (p-AMPK Thr172, p-ACC Ser79 by western blot) (AMPK): effectively activate AMPK | metabolic stability in human hepatocytes (in words) (human hepatocytes; human hepatocyte incubation, 120 min): relatively stable | relative content of original drug remained (human hepatocytes; human hepatocytes, after incubation for 120 min): 79% | Relative abundance (MS peak area %) (human hepatocytes; incubation of IB-33 10 μM with human hepatocytes, 120 min, parent drug and its possible metabolites): 79.31% | body weight (high-fat-fed obese mice; s.c. 0.05, 0.15, 0.3 mg/kg once every two days): significantly reduce the body weight; also recorded: effective in reducing body weight | fat accumulation in the liver (high-fat-fed obese mice; s.c., HE stained liver slice): improve the fat accumulation level in the liver; also recorded: effective in reducing fat accumulation in the liver
